ChEMBL document CHEMBL1136686 (Bioorg Med Chem Lett, 2003)

What follows are compounds tested against T1, Progesterone receptor (Homo sapiens, UniProt P06401) (assay: Inhibition of [3H]P4 to progesterone receptor (PR) of human T47D breast carcinoma cells).
T1 sequence (P06401 whole entry): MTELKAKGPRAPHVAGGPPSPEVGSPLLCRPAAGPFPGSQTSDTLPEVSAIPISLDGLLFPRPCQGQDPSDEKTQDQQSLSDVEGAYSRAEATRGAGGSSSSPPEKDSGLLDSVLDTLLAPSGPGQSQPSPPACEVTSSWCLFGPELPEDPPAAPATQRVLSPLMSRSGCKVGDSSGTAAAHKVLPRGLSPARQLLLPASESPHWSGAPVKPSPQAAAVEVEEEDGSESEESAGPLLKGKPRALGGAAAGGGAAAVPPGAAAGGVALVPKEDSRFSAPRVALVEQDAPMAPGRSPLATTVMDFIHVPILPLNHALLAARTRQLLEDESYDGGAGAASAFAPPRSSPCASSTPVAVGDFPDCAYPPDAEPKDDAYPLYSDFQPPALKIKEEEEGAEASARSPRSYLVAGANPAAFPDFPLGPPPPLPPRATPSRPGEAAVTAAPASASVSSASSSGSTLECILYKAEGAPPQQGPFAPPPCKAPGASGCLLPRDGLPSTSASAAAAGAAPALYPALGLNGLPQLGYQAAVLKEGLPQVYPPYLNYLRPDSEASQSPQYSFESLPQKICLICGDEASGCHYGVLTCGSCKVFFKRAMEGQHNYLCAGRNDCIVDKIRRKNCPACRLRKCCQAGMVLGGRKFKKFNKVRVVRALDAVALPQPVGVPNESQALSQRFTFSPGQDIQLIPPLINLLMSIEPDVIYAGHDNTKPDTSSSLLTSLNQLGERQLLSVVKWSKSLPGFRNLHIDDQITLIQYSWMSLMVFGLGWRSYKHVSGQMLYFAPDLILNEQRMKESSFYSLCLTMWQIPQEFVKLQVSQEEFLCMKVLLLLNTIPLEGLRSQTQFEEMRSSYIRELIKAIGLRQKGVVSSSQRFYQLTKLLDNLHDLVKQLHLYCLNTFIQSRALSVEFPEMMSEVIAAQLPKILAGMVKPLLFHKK
Type: cell-based

`CN1C(=S)OC(C)(C)c2cc(-c3cc(F)cc(Br)c3)ccc21` and `CN1C(=S)OC(C)(C)c2cc(-c3cccc(Br)c3)ccc21` are within 1.5-fold of each other in IC50: 100 nM for the first, 114 nM for the second.

Compound `CCN1C(=S)OC(C)(C)c2cc(-c3cc(F)cc(C#N)c3)ccc21` has an IC50 of 100 nM.

The compounds below were run against T1, Progesterone receptor (assay: Inhibition of [3H]P4 binding at progesterone receptor of human T47D breast carcinoma cells).
Type: cell-based

`COc1cc(C#N)cc(-c2ccc3c(c2)C(C)(C)OC(=S)N3)c1` and `Cc1cc(Br)cc(-c2ccc3c(c2)C(C)(C)OC(=S)N3)c1` are the same in IC50: 100 nM for the first, 100 nM for the second.

`CC1(C)OC(=S)Nc2ccc(-c3cc(Br)cc(OC(F)(F)F)c3)cc21` and `CC1(C)OC(S)=Nc2ccc(-c3cc(C#N)cc(OC(F)(F)F)c3)cc21` are the same in IC50: 100 nM for the first, 100 nM for the second.

With `CC1(C)OC(S)=Nc2ccc(-c3cc(Br)cc(C#N)c3)cc21` the IC50 was 100 nM.

What follows are compounds tested against T2, Progesterone receptor (Rattus norvegicus) (UniProt Q63449) (assay: Effective dose on oral administration in ovariectomized female rat decidualization model).
T2 sequence (whole entry): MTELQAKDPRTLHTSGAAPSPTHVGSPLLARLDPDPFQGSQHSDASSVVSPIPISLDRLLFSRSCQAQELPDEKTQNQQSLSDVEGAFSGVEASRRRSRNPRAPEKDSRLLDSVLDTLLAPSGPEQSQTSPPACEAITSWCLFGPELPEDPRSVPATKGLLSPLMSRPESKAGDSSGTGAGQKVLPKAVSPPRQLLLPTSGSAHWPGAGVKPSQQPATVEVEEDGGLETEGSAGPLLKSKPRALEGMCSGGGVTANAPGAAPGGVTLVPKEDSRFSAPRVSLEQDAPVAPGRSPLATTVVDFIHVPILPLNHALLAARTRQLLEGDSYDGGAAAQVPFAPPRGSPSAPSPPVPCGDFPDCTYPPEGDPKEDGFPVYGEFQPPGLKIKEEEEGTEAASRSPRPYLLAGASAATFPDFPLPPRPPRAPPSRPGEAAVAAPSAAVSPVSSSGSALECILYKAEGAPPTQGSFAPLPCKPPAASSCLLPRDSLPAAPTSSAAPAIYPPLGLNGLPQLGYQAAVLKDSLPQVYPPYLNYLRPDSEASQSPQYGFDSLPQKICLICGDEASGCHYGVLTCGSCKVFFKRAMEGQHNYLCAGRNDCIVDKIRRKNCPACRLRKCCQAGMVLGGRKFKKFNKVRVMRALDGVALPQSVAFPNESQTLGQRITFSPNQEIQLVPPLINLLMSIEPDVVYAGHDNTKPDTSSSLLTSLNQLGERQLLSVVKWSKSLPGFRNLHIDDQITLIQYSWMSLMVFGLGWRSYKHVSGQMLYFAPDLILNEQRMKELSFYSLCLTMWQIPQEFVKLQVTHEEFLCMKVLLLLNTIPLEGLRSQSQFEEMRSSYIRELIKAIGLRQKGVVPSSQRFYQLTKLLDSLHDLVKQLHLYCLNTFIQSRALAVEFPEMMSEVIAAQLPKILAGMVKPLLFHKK
Type: functional, organism-based

First: CC1(C)OC(S)=Nc2ccc(-c3csc(C#N)c3)cc21
Second: CC1(C)OC(S)=Nc2ccc(-c3ccc(C#N)s3)cc21
The ED50 of the first is 2.4-fold lower: 0.62 mg/kg for the first, 1.5 mg/kg for the second.

Compound `CC1(C)OC(S)=Nc2ccc(-c3cc(F)cc(C#N)c3)cc21` has an ED50 of 0.1 mg/kg.

Each compound was assayed against T1, Progesterone receptor (assay: Effective concentration on alkaline phosphatase activity in human T47D breast carcinoma cell line.).
Type: functional, cell-based

`CC1(C)OC(=S)Nc2ccc(-c3cc(F)cc(F)c3)cc21` and `CC1(C)OC(=S)Nc2ccc(-c3cc(F)cc(Br)c3)cc21` are within 1.5-fold of each other in EC50: 1.5 nM for the first, 1.7 nM for the second.

Compared with `COc1cc(C#N)cc(-c2ccc3c(c2)C(C)(C)OC(=S)N3)c1`, `Cc1cc(C#N)cc(-c2ccc3c(c2)C(C)(C)OC(=S)N3)c1` is lower in EC50: > 10000 nM for the first, 200 nM for the second. The second is the more potent here.

`CN1C(=S)OC(C)(C)c2cc(-c3cc(F)cc(Br)c3)ccc21` and `CN1C(=S)OC(C)(C)c2cc(-c3cccc(Br)c3)ccc21` cannot be ordered by EC50: > 10000 nM for the first, > 10000 nM for the second.

Going from `CC1(C)OC(S)=Nc2c(Br)cc(-c3ccc(Cl)c(F)c3)cc21` to `CC1(C)OC(S)=Nc2c(Br)cc(-c3ccc(C#N)c(F)c3)cc21`, the EC50 rises from 1000 nM to > 10000 nM. The first is the more potent here.

Compared with `CCC1(CC)OC(=S)Nc2ccc(-c3cccc(Cl)c3)cc21`, `CCC1(CC)OC(=S)Nc2ccc(-c3cccc([N+](=O)[O-])c3)cc21` is 1.5-fold lower in EC50: 7.2 nM for the first, 4.7 nM for the second. The second is the more potent here.

`CC1(C)OC(=S)Nc2ccc(-c3ccc(C#N)o3)cc21` and `CC1(C)OC(=S)Nc2ccc(-c3coc(C#N)c3)cc21` are within 1.5-fold of each other in EC50: 1.25 nM for the first, 1.2 nM for the second.

Compared with `CCN1C(=S)OC(C)(C)c2cc(-c3cc(F)cc(C#N)c3)ccc21`, `CC1(C)OC(=S)Nc2ccc(-c3cc(F)cc(C#N)c3)cc21` is lower in EC50: > 10000 nM for the first, 0.6 nM for the second.

Going from `CC1(C)OC(=S)Nc2ccc(-c3cc(Cl)cc(C#N)c3)cc21` to `CC1(C)OC(=S)Nc2ccc(-c3cc(Cl)cc(Cl)c3)cc21`, the EC50 falls from 44.9 nM to 26.5 nM (1.7-fold).

`CC1(C)OC(=S)Nc2ccc(-c3cccc(Br)c3)cc21` and `CC1(C)OC(=S)Nc2ccc(-c3cccc(Cl)c3)cc21` are within 1.5-fold of each other in EC50: 2.5 nM for the first, 1.7 nM for the second.

First: COc1cc(F)cc(-c2ccc3c(c2)C(C)(C)OC(=S)N3)c1
Second: COc1cccc(-c2ccc3c(c2)C(C)(C)OC(=S)N3)c1
The EC50 of the first is 2.8-fold lower: 2.6 nM for the first, 7.2 nM for the second. The first is the more potent here.

First: CC1(C)OC(=S)Nc2ccc(-c3cccc(C#N)c3)cc21
Second: CC1(C)OC(=S)Nc2ccc(-c3cccc(F)c3)cc21
The EC50 of the first is 2.5-fold lower: 0.4 nM for the first, 1 nM for the second.

`CC1(C)OC(=S)Nc2ccc(-c3cc(Br)cc(OC(F)(F)F)c3)cc21` and `Cc1cc(Br)cc(-c2ccc3c(c2)C(C)(C)OC(=S)N3)c1` cannot be ordered by EC50: > 10000 nM for the first, > 10000 nM for the second.

First: CC1(C)OC(=S)Nc2ccc(-c3cc(F)cc(C(F)(F)F)c3)cc21
Second: CC1(C)OC(=S)Nc2ccc(-c3ccc(F)c(F)c3)cc21
The EC50 of the first is 4.6-fold lower: 2.5 nM for the first, 11.4 nM for the second. The first is the more potent here.

Going from `CC1(C)OC(S)=Nc2ccc(-c3cc(Br)cc(C#N)c3)cc21` to `CC1(C)OC(S)=Nc2ccc(-c3cc(C#N)cc(C#N)c3)cc21`, the EC50 falls from > 10000 nM to 42 nM.

Going from `CC1(C)OC(=S)Nc2ccc(-c3ccccc3Cl)cc21` to `CC1(C)OC(=S)Nc2ccc(-c3ccccc3F)cc21`, the EC50 falls from 49.8 nM to 11.6 nM (4.3-fold).

Compared with `CC1OC(=S)Nc2ccc(-c3cccc(F)c3)cc21` (configuration not stated), `CC1(C)OC(=S)Nc2ccc(-c3cccc([N+](=O)[O-])c3)cc21` is 270-fold lower in EC50: 300 nM for the first, 1.1 nM for the second.

First: CC1(C)OC(=S)Nc2c(F)cc(-c3cc(F)cc(C#N)c3)cc21
Second: CC1(C)OC(=S)Nc2c(Br)cc(-c3cc(F)cc(C#N)c3)cc21
The EC50 of the first is 12-fold higher: 1000 nM for the first, 80.1 nM for the second. The second is the more potent here.

Going from `CC1(C)OC(=S)Nc2ccc(-c3cccc(F)c3F)cc21` to `CC1(C)OC(=S)Nc2ccc(-c3ccc(F)c(Cl)c3)cc21`, the EC50 rises from 1.5 nM to 79.5 nM (53-fold).

First: N#Cc1cccc(-c2ccc3c(c2)C2(CCCCC2)OC(=S)N3)c1
Second: C=CCC1(C)OC(=S)Nc2ccc(-c3cccc(Cl)c3)cc21 (configuration not stated)
The EC50 of the first is 8.3-fold higher: 2.5 nM for the first, 0.3 nM for the second.

Compared with `SC1=Nc2ccc(-c3cccc(Cl)c3)cc2C(Cc2ccccc2)(Cc2ccccc2)O1`, `CC1(Cc2ccccc2)OC(=S)Nc2ccc(-c3cccc(Cl)c3)cc21` (configuration not stated) is 11-fold lower in EC50: 1000 nM for the first, 88.5 nM for the second.

Going from `CC1(C)OC(S)=Nc2ccc(-c3cc(C#N)cc(OC(F)(F)F)c3)cc21` to `CC1(C)OC(S)=Nc2ccc(-c3cc(F)cc(Cl)c3)cc21`, the EC50 falls from > 10000 nM to 0.9 nM. The second is the more potent here.

First: CC1(C)OC(=S)Nc2ccc(-c3ccc(C#N)s3)cc21
Second: CC1(C)OC(=S)Nc2ccc(-c3cncc(Br)c3)cc21
The EC50 of the first is 8.1-fold lower: 0.7 nM for the first, 5.7 nM for the second.

`CC1(c2ccccc2)OC(=S)Nc2ccc(-c3cccc(Cl)c3)cc21` (configuration not stated) was tested, and the EC50 was 5.7 nM.

The compounds below were run against T2, Progesterone receptor (Rattus norvegicus) (assay: Effective dose on subcutaneous administration in ovariectomized female rat decidualization model).
Type: functional, organism-based

`CC1(C)OC(S)=Nc2ccc(-c3csc(C#N)c3)cc21` gave an ED50 of 0.22 mg/kg.
